{
  "source": "the NIST ThermoML archive (doi:10.1016/j.tca.2010.05.016)",
  "assay": "wn = mass fraction of the nth substance listed",
  "details": "101 kPa, Liquid; for speed of sound: Vibrating Tube; for mass density: Vibrating tube method",
  "note": "± gives the expanded uncertainty stated by the source.",
  "data": [
    {"smiles": "O=C[C@H](O)[C@@H](O)[C@H](O)[C@H](O)CO", "note": "[D-glucose] + O", "values": [
      {"measurement": "speed of sound", "setting": "288.15 K, w1 = 0.0206", "result": "1475.6 ± 3.3", "unit": "m/s"},
      {"measurement": "speed of sound", "setting": "288.15 K, w1 = 0.0396", "result": "1482.2 ± 3.3", "unit": "m/s"},
      {"measurement": "speed of sound", "setting": "288.15 K, w1 = 0.0591", "result": "1490 ± 3.3", "unit": "m/s"},
      {"measurement": "mass density", "setting": "288.15 K, w1 = 0.0396", "result": "1014.53 ± 0.061", "unit": "kg/m3"},
      {"measurement": "mass density", "setting": "288.15 K, w1 = 0.0591", "result": "1022.21 ± 0.079", "unit": "kg/m3"},
      {"measurement": "speed of sound", "setting": "293.15 K, w1 = 0.0396", "result": "1497.7 ± 3.3", "unit": "m/s"},
      {"measurement": "speed of sound", "setting": "293.15 K, w1 = 0.0591", "result": "1505.1 ± 3.3", "unit": "m/s"},
      {"measurement": "mass density", "setting": "293.15 K, w1 = 0.0206", "result": "1006.08 ± 0.047", "unit": "kg/m3"},
      {"measurement": "mass density", "setting": "293.15 K, w1 = 0.0396", "result": "1013.52 ± 0.06", "unit": "kg/m3"},
      {"measurement": "mass density", "setting": "293.15 K, w1 = 0.0591", "result": "1021.13 ± 0.079", "unit": "kg/m3"},
      {"measurement": "speed of sound", "setting": "298.15 K, w1 = 0.0396", "result": "1511.3 ± 3.3", "unit": "m/s"},
      {"measurement": "speed of sound", "setting": "298.15 K, w1 = 0.0591", "result": "1518.4 ± 3.3", "unit": "m/s"},
      {"measurement": "mass density", "setting": "298.15 K, w1 = 0.0206", "result": "1004.86 ± 0.047", "unit": "kg/m3"},
      {"measurement": "mass density", "setting": "298.15 K, w1 = 0.0396", "result": "1012.25 ± 0.06", "unit": "kg/m3"},
      {"measurement": "mass density", "setting": "298.15 K, w1 = 0.0591", "result": "1019.81 ± 0.078", "unit": "kg/m3"},
      {"measurement": "speed of sound", "setting": "303.15 K, w1 = 0.0206", "result": "1517.3 ± 3.3", "unit": "m/s"},
      {"measurement": "speed of sound", "setting": "303.15 K, w1 = 0.0396", "result": "1523 ± 3.3", "unit": "m/s"},
      {"measurement": "speed of sound", "setting": "303.15 K, w1 = 0.0591", "result": "1529.9 ± 3.3", "unit": "m/s"},
      {"measurement": "mass density", "setting": "303.15 K, w1 = 0.0206", "result": "1003.41 ± 0.046", "unit": "kg/m3"},
      {"measurement": "mass density", "setting": "303.15 K, w1 = 0.0396", "result": "1010.76 ± 0.059", "unit": "kg/m3"},
      {"measurement": "mass density", "setting": "303.15 K, w1 = 0.0591", "result": "1018.27 ± 0.077", "unit": "kg/m3"},
      {"measurement": "speed of sound", "setting": "308.15 K, w1 = 0.0206", "result": "1527 ± 3.3", "unit": "m/s"},
      {"measurement": "speed of sound", "setting": "308.15 K, w1 = 0.0396", "result": "1533 ± 3.3", "unit": "m/s"},
      {"measurement": "speed of sound", "setting": "308.15 K, w1 = 0.0591", "result": "1539.5 ± 3.3", "unit": "m/s"},
      {"measurement": "mass density", "setting": "308.15 K, w1 = 0.0206", "result": "1001.75 ± 0.045", "unit": "kg/m3"},
      {"measurement": "mass density", "setting": "308.15 K, w1 = 0.0591", "result": "1016.54 ± 0.076", "unit": "kg/m3"}
    ]}
  ]
}
